Results taken from patent EP0027679B1, “Substituted-5-((7-chloro-4-quinolinyl)amino)-3-(amino-methyl)-(1,1'-biphenyl)-2-ol compounds; processes for their production; and pharmaceutical compositions containing the compounds” (WARNER-LAMBERT COMPANY, priority 1979, dated 1981).

What was measured:
[1] = test system: chloroquine-pyrimethamine-resistant Vietnam Smith strain of P. Falciparum; test: Owl monkey infection with P. falciparum trophozoites, Vietnam Smith strain; format: in vivo, owl monkeys; details: for curative: orally at 2.0 mg/kg/day for a three day period; for cleared the parasitemia: orally at 1.0 mg/kg/day for three days
Protocol: (§1) Studies were also conducted with infections resulting from inoculations of owl monkeys with trophozoites of the chloroquine-pyrimethamine-resistant Vietnam Smith strain of P. Falciparum; the chloroquine-quinine-resistant, pyrimethamine-susceptible Vietnam Oak Knoll strain of P. Falciparum; or the pyrimethamine-resistant Uganda Palo Alto strain of P. Falciparum. The test method is described in L. H. Schmidt, Trans. R. Soc. Trop. Med Hyg. 67 446 (1973).

[2] = test system: chloroquine-quinine-resistant, pyrimethamine-susceptible Vietnam Oak Knoll strain of P. Falciparum; test: Owl monkey infection with P. falciparum trophozoites, Vietnam Oak Knoll strain; format: in vivo, owl monkeys; details: for activity relative to amodiaquine as curative agents: Oak Knoll strains of the malaria parasite; for curative / cleared the parasitemia: Vietnam Oak Knoll strain; for curative: orally at 2.0 mg/kg/day for a three day period; for activity relative to amodiaquine in clearing parasites: Oak Knoll strain; for cleared the parasitemia: orally at 1.0 mg/kg/day for three days
Protocol: as §1

[3] = test system: normal drug-sensitive strain of Plasmodium berghei; test: Plasmodium berghei in mice, single subcutaneous dose 72 h post infection, mean survival time and cures; format: in vivo; details: Table I; for MST after single s.c. dose (extension of survival time over the controls): animals not cured, control MST 6.1-6.3 days; for MST after single s.c. dose: animals cured (C): five animal group
Protocol: Compounds of the invention were tested against a normal drug-sensitive strain of Plasmodium berghei in mice by the parenteral route by a procedure described in J. Med. Chem., 1043 (1967). The compounds were dissolved or suspended in sesame or peanut oil and were administered to mice in a single subcutaneous dose seventy-two hours post infection. Extension of the mean survival time of the treated mice is interpreted as evidence of anti-malarial activity. Compounds are arbitrarily considered to be "active" when they produce at least a 100 percent increase in the mean survival time of treated mice. Animals that survive to sixty days are considered "cured" (termed "C" in Tables I and II). The means survival time (MST) of infected control mice ranges from 6.1-6.3 days while the numbers in parentheses in Tables I and II indicate extension of survival time over the controls as an average for those animals of the five animal group not "cured".

[4] = test system: pyrimethamine-resistant Uganda Palo Alto strain of P. Falciparum; test: Owl monkey infection with P. falciparum trophozoites, Uganda Palo Alto strain; format: in vivo, owl monkeys; details: orally at 1.0 mg/kg/day for three days
Protocol: as §1

[5] = Burckhalter article, Tables VI and XI; cited from earlier work

**Q.** Which curative [1] does the source give for `CC(C)(C)NCc1cc(Nc2cc[n+]([O-])c3cc(Cl)ccc23)cc(-c2ccc(Cl)cc2)c1O` [4—Cl, H, NHC(CH3)3, 1, 4'-chloro-5-[(7-chloro-4-quinolinyl)aminoj-3-[[1,1-dimethylethyl)amino]methyl]-[1,1'-biphenyl]-2-ol-1-oxide] here?
**A.** curative

**Q.** What about the “activity relative to amodiaquine as curative agents” value [2] of the same molecule?
**A.** twenty times the activity of amodiaquine

**Q.** And the curative [2]?
**A.** curative

**Q.** Which “MST after single s.c. dose (extension of survival time over the controls)” value ([3]; dose 10 (dose unit not given)) does the source give for `CCN(CC)Cc1cc(Nc2ccnc3cc(Cl)ccc23)ccc1O` [Amodiaquine, reference compound] here?
**A.** 5.7 days

**Q.** What about the “MST after single s.c. dose (extension of survival time over the controls)” value ([3]; dose 20 (dose unit not given)) of the same molecule?
**A.** 8.3 days

**Q.** What about the “MST after single s.c. dose (extension of survival time over the controls)” value ([3]; dose 40 (dose unit not given)) of the same molecule?
**A.** 11.9 days

**Q.** And the “MST after single s.c. dose: animals cured (C)” value (“MST … (C)” for short) ([3]; dose 80 (dose unit not given))?
**A.** 2C

**Q.** And the “MST … (C)” value ([3]; dose 160 (dose unit not given))?
**A.** 5C

**Q.** What about the “MST … (C)” value ([3]; dose 320 (dose unit not given)) of the same molecule?
**A.** 5C

**Q.** What about the “MST … (C)” value ([3]; dose 640 (dose unit not given)) of the same molecule?
**A.** 5C

**Q.** Which curative [1] does the source give for `CCN(CC)Cc1cc(Nc2cc[n+]([O-])c3cc(Cl)ccc23)cc(-c2ccc(Cl)cc2)c1O` [Example 1] here?
**A.** curative

**Q.** What about the “activity relative to amodiaquine as curative agents” value [2] of the same molecule?
**A.** twenty times the activity of amodiaquine

**Q.** And the curative [2]?
**A.** curative

**Q.** For `CCN(CC)Cc1cc(Nc2ccnc3cc(Cl)ccc23)cc(-c2ccc(Cl)cc2)c1O` [Example 2, 4'-chloro-5-[(7-chloro-4-quinolinyl)amino]-3-[(diethylamino)methyl][1,1'-biphenyl]-2-ol], which cleared the parasitemia [1] is on record?
**A.** cleared the parasitemia

**Q.** What about the cleared the parasitemia [4] of the same molecule?
**A.** cleared the parasitemia

**Q.** What about the “MST after single s.c. dose (extension of survival time over the controls)” value ([3]; dose 10 (dose unit not given)) of the same molecule?
**A.** 14.2 days

**Q.** What about the “MST … (C)” value ([3]; dose 10 (dose unit not given)) of the same molecule?
**A.** 2C

**Q.** What about the “MST … (C)” value ([3]; dose 20 (dose unit not given)) of the same molecule?
**A.** 3C

**Q.** What about the “MST … (C)” value ([3]; dose 40 (dose unit not given)) of the same molecule?
**A.** 4C

**Q.** And the “MST … (C)” value ([3]; dose 80 (dose unit not given))?
**A.** 5C

**Q.** And the “MST … (C)” value ([3]; dose 160 (dose unit not given))?
**A.** 5C

**Q.** And the “MST … (C)” value ([3]; dose 320 (dose unit not given))?
**A.** 5C

**Q.** And the “MST … (C)” value ([3]; dose 640 (dose unit not given))?
**A.** 5C

**Q.** And the “activity relative to amodiaquine in clearing parasites” value [2]?
**A.** twenty times the activity of amodiaquine

**Q.** What about the cleared the parasitemia [2] of the same molecule?
**A.** cleared the parasitemia

**Q.** Which results are given for `CC(C)(C)NCc1cc(Nc2ccnc3cc(Cl)ccc23)cc(-c2ccc(Cl)cc2)c1O` [Example 3, 4'-chloro-5-[(7-chloro-4-quinolinyl)amino]-3-[[(1,1-dimethylethyl)amino]methyl][1,1'-biphenyl]-2-ol]?
**A.** cleared the parasitemia [1]: cleared the parasitemia; cleared the parasitemia [4]: cleared the parasitemia; activity relative to amodiaquine in clearing parasites [2]: twenty times the activity of amodiaquine; cleared the parasitemia [2]: cleared the parasitemia

**Q.** For `C=CCc1cc(Nc2ccnc3cc(Cl)ccc23)cc(CN(CC)CC)c1O` [SN-11991], which quinine equivalent [5] is on record?
**A.** 10

**Q.** Which quinine equivalent [5] does the source give for `CCN(CC)Cc1cc(Nc2ccnc3cc(Cl)ccc23)cc(Cl)c1O` [SN-13729] here?
**A.** 12
